Test results from patent publication US12465580B2, “Substituted fatty acids for treating non-alcoholic steatohepatitis” (BASF AS, priority 2015, dated 2025).

Columns and labels:
[1] = system: APOE*3Leiden.CETP double transgenic mice; test: Hepatic cholesterol content (liver lipids) in diet induced NAFLD/NASH mouse model; format: in vivo; settings: for Effect on hepatic cholesterol ester vs control: Compound N p<0.001, Reference A p<0.05; for Liver lipids, Cholesterol ester (CE in FIG. 1), AVG ± SD / Liver lipids, Free cholesterol (FC in FIG. 1), AVG ± SD: ApoE*3L-CETP mice, high fat diet, 0.25% cholesterol w/w, daily gavage
Experimental: (§1) The APOE*3Leiden.CETP double transgenic mouse is expressing a variant of the human apolipoprotein E3 (APOE3), the APOE*3Leiden, in addition to the human apolipoprotein C1 (APOC1) and CETP. […] By increasing the cholesterol content of the diet in this model, all the characteristics of human NASH develop.
(§2) Studies were performed in APOE*3Leiden.CETP mice placed on a high fat diet (24% fat w/w) with varying cholesterol content (0.25-1% cholesterol w/w). In one study (using 1% cholesterol w/w), after a 3 weeks run-in period 17 (20%) low-responder mice were removed from the study and the remaining 65 mice were sub-divided into groups of 12 mice each (+5 in the control group), matched for plasma cholesterol, triglycerides, blood glucose, body weight and age (t=0) and treatment was started. The mice received a daily gavage between 07 hr00 and 10 hr00 with either Compound N, Reference A or control (corn oil). After 4, 8, 12, 16 and 20 weeks of treatment blood samples were taken after a 5 hour fasting period (also 5 hours after compound or vehicle administration). Plasma cholesterol and triglycerides were measured. After 14 weeks of treatment 5 representative mice from the control group were sacrificed in order to assess the NASH development and to determine the termination of the study. After 20 weeks of treatment mice were sacrificed by CO2 asphyxiation, heparin heart blood was sampled and tissues were collected. Hepatic steatosis, inflammation and collagen content were analyzed.
(§3) A further study was performed in APOE*3Leiden.CETP mice with a 4-week active treatment arm in mice placed on a high fat diet (24% fat and 0.25% cholesterol diet, both w/w) to collect additional metabolic data.
A mild decrease in cholesterol ester was also observed with Reference A (p<0.05). A 43% reduction in total hepatic cholesterol (statistics not performed).

[2] = system: APOE*3Leiden.CETP double transgenic mice; test: Hepatic steatosis (macrovesicular and microvesicular) in diet induced NAFLD/NASH mouse model; format: in vivo; settings: for Steatosis as % of the liver, Macrovesicular, Mean ± SD / Steatosis as % of the liver, Microvesicular, Mean ± SD: ApoE*3L-CETP mice, high fat/cholesterol diet, liver after 20 weeks of treatment; for Effect on macrovesicular steatosis vs control: Compound N p<0.001 vs. control
Experimental: as §1, §2

[3] = system: APOE*3Leiden.CETP double transgenic mice; settings: earlier study; cited from earlier work
[4] = system: APOE*3Leiden.CETP double transgenic mice; test: Hepatic inflammation (number of foci, inflammation score) in diet induced NAFLD/NASH mouse model; format: in vivo; settings: for Inflammation Score (0-3), Mean ± SD / Inflammation, Number of foci, Mean ± SD: ApoE*3L-CETP mice, high fat/cholesterol diet, liver after 20 weeks of treatment
Experimental: as §1, §2

[5] = system: APOE*3Leiden.CETP double transgenic mice; test: Fecal bile acid content in diet induced NAFLD/NASH mouse model; format: in vivo; settings: for Total bile acids (fecal), AVG ± SD: ApoE*3L-CETP double transgenic mice, feces
Experimental: as §1, §2, §3

[6] = system: APOE*3Leiden.CETP double transgenic mice; test: Hepatic fibrosis (collagen content) in diet induced NAFLD/NASH mouse model; format: in vivo; settings: for Fibrosis, Hydroxyprolin/Prolin, Mean ± SD: ApoE*3L-CETP double transgenic mice, hepatic collagen content, after 20 weeks of treatment
Experimental: as §1, §2

[7] = system: APOE*3Leiden.CETP double transgenic mice; test: Total plasma cholesterol in diet induced NAFLD/NASH mouse model; format: in vivo
Experimental: as §1, §2, §3
Plasma HDL cholesterol values were adoubled (p<0.001, data not shown), underlying the fact that the reduction in plasma cholesterol was specific to the atherogenic apoB particle associated cholesterol fraction.

SMILES | Effect on hepatic cholesterol ester vs control ([1]; 0.25% cholesterol diet w/w) | Liver lipids, Cholesterol ester (CE in FIG. 1), AVG ± SD [1] [μg lipid/mg liver protein] | Liver lipids, Free cholesterol (FC in FIG. 1), AVG ± SD [1] [μg lipid/mg liver protein] | Steatosis as % of the liver, Macrovesicular, Mean ± SD [2] [%] | Steatosis as % of the liver, Microvesicular, Mean ± SD [2] [%] | Effect on macrovesicular steatosis vs control [2] | Effect on plasma cholesterol, previously shown [3] | Inflammation Score (0-3), Mean ± SD [4] | Inflammation, Number of foci, Mean ± SD [4] | Total bile acids (fecal), AVG ± SD [5] [μmol/100 gr mouse/day] | Fibrosis, Hydroxyprolin/Prolin, Mean ± SD [6] | other results
CC/C=C\C/C=C\C/C=C\C/C=C\C/C=C\CCCCOC(CC)C(=O)O (stereo not drawn) [Reference A, 2-((5Z,8Z,11Z,14Z,17Z)-icosa-5,8,11,14,17-pentaenyloxy)butanoic acid, reference compound] | mild decrease | 17.0 ± 3.7 | 9.5 ± 1.3 | 21.2 ± 15.0 | 34.6 ± 11.8 | No significant effect | significantly decrease plasma cholesterol | 1.9 ± 1.2 | 1.9 ± 1.3 | 4.0 ± 1.2 | – | Effect on inflammatory foci vs control ([4]; Reference A p<0.01): milder reduction; Effect on fecal bile acid excretion vs control ([5]; p<0.05 vs. control): milder yet significant decrease
CN(CCOc1ccc(CC2SC(=O)NC2=O)cc1)c1ccccn1 (stereo not drawn) [Rosiglitazone] | – | – | – | 14.3 ± 20.2 | 52.5 ± 18.4 | No significant effect | – | 1.7 ± 1.2 | 1.6 ± 1.6 | – | 0.036 ± 0.007 | –
CC/C=C\C/C=C\C/C=C\C/C=C\C/C=C\CCCCSC(CC)(CC)C(=O)O [Compound N, 2-ethyl-2-((5Z,8Z,11Z,14Z,17Z)-icosa-5,8,11,14,17-pentaenylthio)butanoic Acid] | significant decrease | 10.6 ± 2.1 | 9.8 ± 1.2 | 1.1 ± 1.0 | 57.9 ± 25.4 | abolished macrovesicular steatosis | significantly decrease plasma cholesterol | 0.6 ± 0.8 | 0.6 ± 0.6 | 3.2 ± 0.6 | 0.027 ± 0.007 | Reduction in total plasma cholesterol ([7]; after 4 weeks versus control, p<0.001): 52%; Plasma HDL cholesterol values ([7]; p<0.001, data not shown): doubled; Total plasma cholesterol, t = 0, AVG ± SD ([7]; t = 0 weeks (baseline, start of treatment)): 6.4 ± 1.1 mM; Total plasma cholesterol, t = 2, AVG ± SD ([7]; t = 2 weeks of treatment): 4.2 ± 0.7 mM; Total plasma cholesterol, t = 4, AVG ± SD ([7]; t = 4 weeks of treatment): 4.7 ± 1.3 mM; Reduction in total hepatic cholesterol ([1]; 0.25% cholesterol diet w/w, statistics not performed): 43%; Reduction in hepatic collagen content ([6]; compared to control animals, p<0.005): 30%; Effect on total inflammation score ([4]; vs control): significant reduction; Reduction in the number of inflammatory foci ([4]; vs control, p<0.001): approximately 85%; Reduction in fecal bile acid excretion ([5]; vs control, p=0.006): 50%
